How the values were obtained:
NET [1] = assay: NE release study; format: biochemical
SERT [2] = target: T1, SERT (Rattus norvegicus (Rat), UniProt P31652); assay: 5-HT release study; format: biochemical
DAT [3] = target: T2, DAT (Rattus norvegicus (Rat), UniProt P23977); assay: [3H]Dopamine uptake inhibition in rat brain synaptosomes; format: biochemical; details: DA
Protocol: (§1) Materials used were: Neurotransmitters [3H]5-HT (PerkinElmer, NET498001MC) [^3H]Dopamine (PerkinElmer, NET673250UC) [^3H]Norepinephrine (PerkinElmer, NET377250UC); Test Compounds Racemic methylone HCl (Merck, M-140); (R)-methylone HCl (Pisgah Labs); (S)-methylone HCl (Pisgah Labs); Reference Compounds Citalopram (Tocris Bioscience 1427). JHW007 (Tocris Bioscience 4351). Nomifensine (Abcam ab146004).
(§2) Synaptosomes were prepared from Sprague Dawley (200-250 g) rat brain regions (hippocampus for NE, striatum for DA and midbrain for 5-HT) using standard protocols. Tissues were dissected, added to sucrose buffer (0.32 M), homogenized with a dounce-homogenizer and centrifuged at 100×g to remove cells and debris. Supernatant was collected and centrifuged 17,000×g for 10 minutes at 4° C. to pellet the synaptosomes. The pellet was resuspended in fresh assay buffer.
(§3) Uptake assays were carried out in 96-well plates in a final volume of 250 μL per well. To each well was added 150 μL synaptosomes, 50 μL test, non-specific compound or buffer alone. The plate was incubated at 30° C. for 30 minutes with gentle agitation. 50 μL radiolabeled neurotransmitter in buffer was then added to each well to initiate the uptake. The plate was incubated at 30° C. for a further 5 minutes with gentle agitation. The incubation was stopped by vacuum filtration onto presoaked GF/C filters using a 96-well FilterMate™ harvester, followed by 3 washes with ice-cold wash buffer. Filters were then dried under a warm air stream, sealed in polyethylene, scintillation cocktail added, and the radioactivity counted in a Wallac® TriLux 1450 MicroBeta counter.
(§4) For each concentration of drug, non-specific uptake was subtracted from total uptake to give specific uptake. Data was fitted using the non-linear curve fitting routines in Prism® (Graphpad Software Inc) to determine IC50.

[4] = target: norepinephrine transporter (NET); assay: Competition radioligand binding, [3H]Nisoxetine, rat brain membranes; details: NE transporter
Source text: (§5) Rat brain (Sprague Dawley, 200-250 g) synaptosomes were isolated from midbrain and hindbrain for serotonin transporter assays, striatum for dopamine transporter assays, and hippocampus plus overlying occipital cortex for norepinephrine transporter assays. Radioligands used were: [^3H]Citalopram 81.4 Ci/mmol (PerkinElmer NET1039250UC; Lot No. 2960876). [^3H]WIN35428 82.8 Ci/mmol (PerkinElmer NET1033250UC; Lot No. 2891473). [^3H]Nisoxetine 79.2 Ci/mmol (PerkinElmer NET1084250UC; Lot No. 2970324). Non-specific compounds used were: Citalopram (Tocris Bioscience 1427). JHW007 (Tocris Bioscience 4351). Nomifensine (Abcam ab146004). Test Compounds for the study were: racemic methylone HCl; (R)-methylone HCl; (S)-methylone HCl.
(§6) For membrane preparations, rat brains were dissected, tissue was added to ice-cold lysis buffer (50 mM Tris HCl; 5 mM MgCl2; 5 mM EDTA; protease inhibitor cocktail) and homogenized. The homogenate was centrifuged at 100×g for 2 minutes and the supernatant divided into polypropylene Eppendorf tubes. The supernatants were centrifuged at 17,000×g for 10 minutes at 4° C. to re-pellet the cell lysate. The pellet was resuspended in fresh wash buffer (50 mM Tris-HCl; 5 mM MgCl2; 5 mM EDTA) and centrifuged a third time at 17,000×g for 10 minutes at 4° C. The pellet was resuspended in wash buffer containing 10% sucrose as a cryoprotectant, divided into aliquots (0.3 mL) and stored at −80° C. A sample of the homogenate was analyzed for protein content using the MERCK® BCA assay. On the day of the assay, the membrane preparation was thawed and the pellet resuspended in final assay buffer.
(§7) Competition binding assays were carried out in 96-well polypropylene plates in a final volume of 250 μL per well. To each well was added 150 μL membranes, 50 μL of test compound, non-specific compound or buffer, and 50 μL radioligand solution in buffer. The plate was incubated at 30° C. for 90 minutes with gentle agitation. The incubation was stopped by vacuum filtration onto presoaked (wash buffer with PEI) GF/C filters using a 96-well FILTERMATE™ harvester, followed by 5 washes with ice-cold wash buffer. Filters were then dried under a warm air stream, sealed in polyethylene, scintillation cocktail added, and the radioactivity counted in a WALLAC® TriLux 1450 MicroBeta counter. For each concentration of drug, non-specific binding was subtracted from total binding to give specific binding. Data was fitted using the non-linear curve fitting routines in PRISM® (Graphpad Software Inc) to determine IC50. Ki was subsequently calculated using the ChengPrusoff equation.

NET [5] = assay: [3H]Norepinephrine uptake inhibition in rat brain synaptosomes; format: biochemical; details: NE
Protocol: as §1, §2, §3, §4

SERT [6] = target: T1, SERT; assay: [3H]5-HT uptake inhibition in rat brain synaptosomes; format: biochemical
Protocol: as §1, §2, §3, §4

cardiac ion channels = assay: In vitro cardiovascular safety screening test (ion channel panel, overall); format: cell-based, human; details: whole panel
Protocol: An in vitro cardiovascular safety screening test was run to investigate the effects of racemic methylone and two methylone stereoisomers ((R)-methylone and (S)-methylone) on selected ion channels critically linked to cardiovascular function and activity.
Electrophysiological assays were conducted to profile three compounds ((R)-methylone, (S)-methylone, or racemic methylone) for activities on the ion channel targets specified below using the Qube electrophysiological platform. Where presented, IC50 values were determined by a non-linear, least squares regression analysis. Reference standards were run as an integral part of each assay to ensure the validity of the results obtained.
Ion Channels tested were Eurofins Panel Part Number: CPROFullQB2DR Voltage-Gated Sodium: HEK-Nav1.5 (Peak), HEK-Nav1.5 (Late, Antagonist) Voltage-Gated Potassium: HEK-Kv4.3/KChIP2, CHO-hERG, CHO-KCNQ1/minK Voltage-Gated Calcium: HEK-Cav1.2 Inward-Rectifying Voltage-Gated Potassium: HEK-Kir2.1.

[7] = target: dopamine transporter (DAT) (Rattus norvegicus (Rat), UniProt P23977); assay: Competition radioligand binding, [3H]WIN35428, rat brain membranes; details: DA transporter
Source text: as §5, §6, §7

[8] = target: serotonin transporter (SERT) (Rattus norvegicus (Rat), UniProt P31652); assay: Competition radioligand binding, [3H]Citalopram, rat brain membranes; details: 5-HT transporter
Source text: as §5, §6, §7

DAT [9] = target: T2, DAT; assay: DA release study; format: biochemical
[10] = tested on: rat forced swim test (FST); assay: Rat forced swim test (FST); format: in vivo; details: 10 mg/kg, IP
Protocol: All FST studies are performed and scored by an experimenter blind to treatment group and according to standard protocols. Briefly, rats are placed in a circular plexiglass container filled with water. Water temperature is maintained at 22-25° C. and changed for every animal. Day 1 (Training) consists of a 15 min acclimation trial, and Day 2 (Testing, 24 h later) consists of the 5 min test. A time sampling procedure is employed where animals are observed every 5 seconds for the duration of the test session (60 counts or 5 minutes) and scored for immobility (defined as the failure to struggle), swimming (defined as a circular movement around the tank), or climbing (defined as an upwards escape behavior). Data are expressed as the percent of the testing session (e.g., the number of immobility counts divided by 60). A p-value less than 0.05 indicates statistical significance after typical statistical analyses (e.g., unpaired t-test or ANOVA).
To determine that the prodrug and/or enantiomer has an antidepressant-like effect and to compare it to methylone, rats are treated with each compound 30 min prior to testing. Additional tests are run 24, 72, 168 hours post-dose or longer.
Racemic methylone (10 mg/kg, IP) has a maximal antidepressant-like effect in the rat forced swim test (FST), reducing immobility by nearly 100% compared to vehicle treated controls. To determine whether one enantiomer of methylone could mimic the robust antidepressant-like effect of racemic methylone, rats were treated with a single dose of racemic methylone, (R)-methylone, (S)-methylone (all 10 mg/kg, IP) or vehicle 30 min before testing in the FST. […] Therefore, all of the activity of methylone appears to be driven by the activity of one enantiomer ((S)-methylone).

[11] = self-administration, healthy volunteers; cited from earlier work
mouse model of PTSD = details: 7.5 mg/kg, 30 minutes prior to extinction training; Young et al. 2015; cited from earlier work

**Q.** Which EC50 (NET [1]) does the source give for CNC(C)C(=O)c1ccc2c(c1)OCO2 (racemic) [Racemic methylone] here?
**A.** 330 nM

**Q.** What about the EC50 (SERT [2]) of the same compound?
**A.** 620 nM

**Q.** What about the IC50 (DAT [3]) of the same compound?
**A.** 1430 nM

**Q.** And the IC50 [4]?
**A.** 3100 nM

**Q.** And the Ki ([4]; Cheng-Prusoff)?
**A.** 1460 nM

**Q.** And the IC50 (NET [5])?
**A.** 355 nM

**Q.** What about the IC50 (SERT [6]) of the same compound?
**A.** 811 nM

**Q.** And the “Effect on the cardiac ion channels tested” value (cardiac ion channels)?
**A.** do not directly inhibit the activity of cardiac channels

**Q.** What about the IC50 [7] of the same compound?
**A.** 7110 nM

**Q.** And the Ki ([7]; Cheng-Prusoff)?
**A.** 3530 nM

**Q.** And the IC50 [8]?
**A.** 12300 nM

**Q.** And the Ki ([8]; Cheng-Prusoff)?
**A.** 7440 nM

**Q.** And the EC50 (DAT [9])?
**A.** 4790 nM

**Q.** What about the “Reduction of immobility compared to vehicle treated controls” value [10] of the same compound?
**A.** ~100%

**Q.** Which “Systolic and diastolic blood pressure” value [11] does the source give for CNC(C)Cc1ccc2c(c1)OCO2 (stereo not shown) [MDMA, 3,4-methylenedioxymethamphetamine, reference compound] here?
**A.** significant increase

**Q.** And the “Reduced freezing compared to saline injected controls (extinction recall)” value (mouse model of PTSD)?
**A.** 35%
